Data from patent US9006265B2, “Substituted fused pyrimidinones and dihydropyrimidinones” (Bayer Intellectual Property GmbH, priority 2010, dated 2015).

Key:
ZEAMX [1] = test: Drought stress test on crop plants in greenhouse, spray application; format: in vivo, Zea mays; details: efficacy = percentage reduction in intensity of damage, mean of three results
Procedure: (§1) Seeds of monocotyledonous and dicotyledonous crop plants were laid out in sandy loam in wood-fiber pots, covered with soil and cultivated in a greenhouse under good growth conditions. The test plants were treated at the early leaf stage (BBCH10-BBCH13). To ensure uniform water supply before commencement of stress, the potted plants were supplied with the maximum amount of water immediately beforehand by dam irrigation and, after application, transferred in plastic inserts in order to prevent subsequent, excessively rapid drying. The inventive compounds, formulated in the form of wettable powders (WP), wettable granules (WG), suspension concentrates (SC) or emulsion concentrates (EC), were sprayed onto the green parts of the plants as an aqueous suspension at an equivalent water application rate of 600 l/ha with addition of 0.2% wetting agent (agrotin). Substance application is followed immediately by stress treatment of the plants (cold or drought stress). For cold stress treatment, the plants were kept under the following controlled conditions: • “day”: 12 hours with illumination at 8° C. • “night”: 12 hours without illumination at 1° C.
(§2) Drought stress was induced by gradual drying out under the following conditions: • “day”: 14 hours with illumination at 26° C. • “night”: 10 hours without illumination at 18° C.
(§3) The duration of the respective stress phases was guided mainly by the state of the untreated (=treated with blank formulation without test compound), stressed control plants and thus varied from crop to crop. It was ended (by re-irrigating or transfer to a greenhouse with good growth conditions) as soon as irreversible damage was observed on the untreated, stressed control plants. In the case of dicotyledonous crops, for example oilseed rape and soybeans, the duration of the drought stress phase varied between 3 and 5 days, in the case of monocotyledonous crops, for example wheat, barley or corn, between 6 and 10 days. The duration of the cold stress phase varied between 12 and 14 days.
(§4) The end of the stress phase was followed by an approx. 5-7-day recovery phase, during which the plants were once again kept under good growth conditions in a greenhouse. In order to rule out any influence of the effects observed by any fungicidal action of the test compounds, it was additionally ensured that the tests proceeded without fungal infection and without infection pressure.
(§5) After the recovery phase had ended, the intensities of damage were rated in visual comparison to untreated, unstressed controls of the same age (in the case of drought stress) or the same growth stage (in the case of cold stress). The intensity of damage was first assessed as a percentage (100%=plants have died, 0%=like control plants). These values were then used to calculate the efficacy of the test compounds (=percentage reduction in the intensity of damage as a result of substance application) by the following formula:
(§6) [formula] EF: efficacy (%) DVus: damage value of the untreated, stressed control DVts: damage value of the plants treated with test compound
(§7) The tables A-1 and B-1 to B-4 below list mean values in each case from three results of the same test.
(§8) Efficacies of selected compounds of the formula (I) under drought stress using the examples of HORVS, BRSNS, ZEAMX und TRZAS: […]

TRZAS = test: as above; format: in vivo, Triticum aestivum; details: efficacy = percentage reduction in intensity of damage, mean of three results
Procedure: as §1, §2, §3, §4, §5, §6, §7, §8

BRSNS = test: as above; format: in vivo, Brassica napes; details: efficacy = percentage reduction in intensity of damage, mean of three results
Procedure: as §1, §2, §3, §4, §5, §6, §7, §8

ZEAMX [2] = test: Cold stress test on crop plants in greenhouse, spray application; format: in vivo, Zea mays; details: efficacy = percentage reduction in intensity of damage, mean of three results
Procedure: Seeds of monocotyledonous and dicotyledonous crop plants were laid out in sandy loam in wood-fiber pots, covered with soil and cultivated in a greenhouse under good growth conditions. The test plants were treated at the early leaf stage (BBCH10-BBCH13). To ensure uniform water supply before commencement of stress, the potted plants were supplied with the maximum amount of water immediately beforehand by dam irrigation and, after application, transferred in plastic inserts in order to prevent subsequent, excessively rapid drying. The inventive compounds, formulated in the form of wettable powders (WP), wettable granules (WG), suspension concentrates (SC) or emulsion concentrates (EC), were sprayed onto the green parts of the plants as an aqueous suspension at an equivalent water application rate of 600 l/ha with addition of 0.2% wetting agent (agrotin). Substance application is followed immediately by stress treatment of the plants (cold or drought stress). For cold stress treatment, the plants were kept under the following controlled conditions: • “day”: 12 hours with illumination at 8° C. • “night”: 12 hours without illumination at 1° C. The duration of the respective stress phases was guided mainly by the state of the untreated (=treated with blank formulation without test compound), stressed control plants and thus varied from crop to crop. It was ended (by re-irrigating or transfer to a greenhouse with good growth conditions) as soon as irreversible damage was observed on the untreated, stressed control plants. In the case of dicotyledonous crops, for example oilseed rape and soybeans, the duration of the drought stress phase varied between 3 and 5 days, in the case of monocotyledonous crops, for example wheat, barley or corn, between 6 and 10 days. The duration of the cold stress phase varied between 12 and 14 days. The end of the stress phase was followed by an approx. 5-7-day recovery phase, during which the plants were once again kept under good growth conditions in a greenhouse. In order to rule out any influence of the effects observed by any fungicidal action of the test compounds, it was additionally ensured that the tests proceeded without fungal infection and without infection pressure. After the recovery phase had ended, the intensities of damage were rated in visual comparison to untreated, unstressed controls of the same age (in the case of drought stress) or the same growth stage (in the case of cold stress). The intensity of damage was first assessed as a percentage (100%=plants have died, 0%=like control plants). These values were then used to calculate the efficacy of the test compounds (=percentage reduction in the intensity of damage as a result of substance application) by the following formula: [formula] EF: efficacy (%) DVus: damage value of the untreated, stressed control DVts: damage value of the plants treated with test compound The tables A-1 and B-1 to B-4 below list mean values in each case from three results of the same test. Efficacies of selected compounds of the formula (I) under cold stress using the example of ZEAMX: […]

O=c1[nH]c(-c2nc[nH]n2)nc2ccccc12 [I.1-30]
EF (ZEAMX) (ZEAMX [1]; dosage 500 g/ha): >5%

Cc1cccc2c(=O)[nH]c(/C=C/c3cccnc3)nc12 [I.1-338]
EF (ZEAMX) (ZEAMX [1]; dosage 100 g/ha): >5%
EF (TRZAS) (TRZAS; dosage 100 g/ha): >5%
EF (BRSNS) (BRSNS; dosage 100 g/ha): >5%

COc1cc2nc(/C=C/c3cc(OC)c(O)c(OC)c3)[nH]c(=O)c2cc1OC [I.1-429]
EF (ZEAMX) (ZEAMX [2]; dosage 250 g/ha): >5%

Cc1ccc(C2NC(=O)c3cccc(Cl)c3N2)c(Cl)c1 (stereo not drawn) [I.4-295]
EF (ZEAMX) (ZEAMX [1]; dosage 250 g/ha): >5%

O=c1[nH]c(CCc2ccccc2)nc2c(Cl)cccc12 [I.1-172]
EF (ZEAMX) (ZEAMX [2]; dosage 25 g/ha): >5%

CCCCCc1nc2c(OC)cccc2c(=O)[nH]1 [I.1-153]
EF (ZEAMX) (ZEAMX [1]; dosage 500 g/ha): >5%
EF (BRSNS) (BRSNS; dosage 500 g/ha): >5%

O=C1NC(c2ccc(Cl)cc2)Nc2ccccc21 (stereo not drawn) [I.4-71, 2-(4-Chlorophenyl)-2,3-dihydroquinazolin-4(1H)-one]
melting point: 190 °C

O=c1[nH]c2c(-c3ccc(Cl)cc3)c(C(F)(F)F)nn2c2ccccc12 [I.3-17, 3-(4-Chlorophenyl)-2-(trifluoromethyl)pyrazolo[1,5-a]quinazolin-5(4H)-one]
EF (ZEAMX) (ZEAMX [1]; dosage 250 g/ha): >5%
EF (BRSNS) (BRSNS; dosage 250 g/ha): >5%

COc1cccc2c1NC(/C=C/c1ccccc1)NC2=O (stereo not drawn) [I.4-75, 2R,S-8-methoxy-2-[(E)-2-phenylethenyl]-2,3-dihydroquinazolin-4(1H)-one]
EF (TRZAS) (TRZAS; dosage 250 g/ha): >5%
EF (BRSNS) (BRSNS; dosage 250 g/ha): >5%

COc1cccc2c(=O)[nH]c(-c3ccc([N+](=O)[O-])cc3)nc12 [I.1-36]
EF (ZEAMX) (ZEAMX [2]; dosage 25 g/ha): >5%

CCn1nccc1C1NC(=O)c2cccc(C)c2N1 (stereo not drawn) [I.4-115]
EF (TRZAS) (TRZAS; dosage 250 g/ha): >5%
EF (BRSNS) (BRSNS; dosage 250 g/ha): >5%

Cc1ccc2c(=O)[nH]c(-c3ccc(Cl)cc3)nc2c1 [I.1-318]
EF (ZEAMX) (ZEAMX [1]; dosage 250 g/ha): >5%

O=C1NC(c2ccc(F)cc2F)Nc2c(Cl)cccc21 (stereo not drawn) [I.4-175]
EF (ZEAMX) (ZEAMX [1]; dosage 250 g/ha): >5%

NC(=O)c1cnn2c1[nH]c(=O)c1ccccc12 [I.3-31]
EF (ZEAMX) (ZEAMX [2]; dosage 250 g/ha): >5%
EF (ZEAMX) (ZEAMX [1]; dosage 250 g/ha): >5%
EF (TRZAS) (TRZAS; dosage 25 g/ha): >5%
EF (BRSNS) (BRSNS; dosage 25 g/ha): >5%

O=C1NC(c2ccc(Cl)cc2)Nc2cccc(F)c21 (stereo not drawn) [I.4-165]
EF (ZEAMX) (ZEAMX [1]; dosage 250 g/ha): >5%

CCN(CC)CCN1C(=O)c2cccc(OC)c2NC1c1ccnn1C (stereo not drawn) [I.4-330]
EF (ZEAMX) (ZEAMX [1]; dosage 250 g/ha): >5%
EF (TRZAS) (TRZAS; dosage 250 g/ha): >5%

Cc1cc(Cl)cc2c(=O)[nH]c(-c3[nH]ncc3Br)nc12 [I.1-165]
EF (ZEAMX) (ZEAMX [1]; dosage 250 g/ha): >5%
EF (TRZAS) (TRZAS; dosage 250 g/ha): >5%
EF (BRSNS) (BRSNS; dosage 250 g/ha): >5%

Cc1cccc2c(=O)[nH]c(-c3ccc(Br)cc3)nc12 [I.1-378]
EF (TRZAS) (TRZAS; dosage 250 g/ha): >5%

O=c1[nH]c(-c2cc(Br)cs2)nc2c(Cl)cccc12 [I.1-201]
EF (ZEAMX) (ZEAMX [1]; dosage 250 g/ha): >5%

Cc1ccc(C2NC(=O)c3c(C)cccc3N2)cc1 (stereo not drawn) [I.4-193]
EF (TRZAS) (TRZAS; dosage 250 g/ha): >5%

Cc1cccc2c1C(=O)NC(c1ccsc1)N2 (stereo not drawn) [I.4-180]
EF (ZEAMX) (ZEAMX [1]; dosage 250 g/ha): >5%

O=C1NC(c2ccsc2)Nc2c(Cl)cccc21 (stereo not drawn) [I.4-181]
EF (ZEAMX) (ZEAMX [1]; dosage 250 g/ha): >5%
EF (BRSNS) (BRSNS; dosage 250 g/ha): >5%

O=c1[nH]c(-c2ccc(C#Cc3ccccc3F)o2)nc2cc(Cl)ccc12 [I.1-181]
EF (BRSNS) (BRSNS; dosage 250 g/ha): >5%

O=c1[nH]c(COc2ccccc2)nc2cc(Cl)ccc12 [I.1-303]
EF (ZEAMX) (ZEAMX [1]; dosage 250 g/ha): >5%

COc1cc2nc(-c3cccc(C(F)(F)F)c3)[nH]c(=O)c2cc1OC [I.1-440]
EF (ZEAMX) (ZEAMX [2]; dosage 25 g/ha): >5%

COc1cccc2c1NC(CCc1ccccc1)NC2=O (stereo not drawn) [I.4-16]
EF (BRSNS) (BRSNS; dosage 250 g/ha): >5%
